Laboratory results as given in patent US20100267561A1, “HERBICIDAL PYRIDAZINONE DERIVATIVES” (priority 2007, published 2010).

Key:
Assay type in all cases: in vivo
[1] = system: barnyardgrass (Echinochloa crus-galli); experiment: Test A pre-/postemergence plant response
How it was run: (§1)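 Soil: loam blended with sand. Formulation: non-phytotoxic solvent mixture plus surfactant, applied as preemergence directed soil spray and as postemergence spray. Scoring: visual, 0 no effect to 100 complete control, roughly 10 days post-treatment in greenhouse.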

[2] = system: corn (Zea mays); experiment: Test A pre-/postemergence plant response
How it was run: as §1

[3] = system: giant foxtail (Setaria faberi); experiment: Test A pre-/postemergence plant response
How it was run: as §1

[4] = system: large crabgrass (Digitaria sanguinalis); experiment: Test A pre-/postemergence plant response
How it was run: as §1

[5] = system: wheat (Triticum aestivum); experiment: Test B pre-/postemergence plant response
How it was run: (§2)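 Visual scoring from 0 (no effect) to 100 (complete control) against untreated controls was done 13 to 15 days after greenhouse treatment. Chemicals were formulated in a surfactant-containing non-phytotoxic solvent and applied to soil preemergence or to 1- to 4-leaf (2-18 cm) plants postemergence.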

[6] = system: wild oat (Avena fatua); experiment: Test B pre-/postemergence plant response
How it was run: as §2

[7] = system: yellow nutsedge (Cyperus esculentus); experiment: Test B pre-/postemergence plant response
How it was run: as §2

[8] = system: canarygrass (Phalaris minor); experiment: Test B postemergence plant response; settings: for Plant response rating, Canarygrass: Postemergence
How it was run: (§3)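 Emerged plants, 1- to 4-leaf stage, treated; greenhouse 13–15 d; eye-scored vs untreated controls (0–100 scale).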

[9] = system: chickweed (Stellaria media); experiment: Test B postemergence plant response; settings: for Plant response rating, Chickweed: Postemergence
How it was run: as §3

[10] = system: windgrass (Apera spica-venti); experiment: Test B postemergence plant response; settings: for Windgrass plant response rating: postemergence, 0-100 scale; for Plant response rating, Windgrass: Postemergence
How it was run: as §3

[11] = system: winter barley (Hordeum vulgare); experiment: Test B postemergence plant response; settings: for Plant response rating, Barley: Postemergence, scale 0 to 100, 0 no effect, 100 complete control
How it was run: as §3

[12] = Postemergence, 31 g ai/ha, 0 to 100 scale, 0 no effect, 100 complete control
[13] = Postemergence, 125 g ai/ha, 0 to 100 scale, 0 no effect, 100 complete control
[14] = Preemergence, 31 g ai/ha, 0 to 100 scale, 0 is no effect, 100 is complete control
[15] = Preemergence, 125 g ai/ha, 0 to 100 scale (0 no effect, 100 complete control)
[16] = 8 g ai/ha, postemergence, 0-100 scale
[17] = 16 g ai/ha, postemergence, 0-100 scale
[18] = Postemergence, 31 g ai/ha, scale 0 to 100
[19] = Postemergence, 62 g ai/ha, scale 0 to 100, 0 no effect, 100 complete control
[20] = Preemergence, 31 g ai/ha, scale 0 to 100 (0 no effect, 100 complete control)
[21] = Preemergence, 62 g ai/ha, 0 to 100 scale, 0 no effect, 100 complete control
[22] = Preemergence, 16 g ai/ha, scale 0 to 100
[23] = Preemergence, 8 g ai/ha, scale 0 to 100
[24] = 62 g ai/ha, scale 0 to 100, 0 no effect, 100 complete control

CCCc1cc(-c2ccc(Cl)cc2)nn1-c1c(O)cnn(C)c1=O [Compound 76]
Plant response rating, Barnyardgrass [1, 12]: 90 | Plant response rating, Barnyardgrass [1, 13]: 100 | Plant response rating, Barnyardgrass [1, 14]: 40 | Plant response rating, Barnyardgrass [1, 15]: 100 | Plant response rating, Corn [2, 12]: 20 | Plant response rating, Corn [2, 13]: 100 | Plant response rating, Corn [2, 14]: 0 | Plant response rating, Corn [2, 15]: 50 | Plant response rating, Foxtail, Giant [3, 12]: 70 | Plant response rating, Foxtail, Giant [3, 13]: 90 | Plant response rating, Foxtail, Giant [3, 14]: 70 | Plant response rating, Foxtail, Giant [3, 15]: 100 | Plant response rating, Crabgrass, Large [4, 12]: 20 | Plant response rating, Crabgrass, Large [4, 13]: 100 | Plant response rating, Crabgrass, Large [4, 14]: 20 | Plant response rating, Crabgrass, Large [4, 15]: 80 | Wheat plant response rating [5, 16]: 10 | Wheat plant response rating [5, 17]: 30 | Plant response rating, Wheat [5, 18]: 30 | Plant response rating, Wheat [5, 19]: 35 | Plant response rating, Wheat [5, 20]: 0 | Plant response rating, Wheat [5, 21]: 0 | Wheat plant response rating [5, 22]: 0 | Oat, Wild plant response rating [6, 16]: 80 | Oat, Wild plant response rating [6, 17]: 95 | Plant response rating, Oat, Wild [6, 18]: 100 | Plant response rating, Oat, Wild [6, 19]: 100 | Plant response rating, Oat, Wild [6, 20]: 5 | Plant response rating, Oat, Wild [6, 21]: 80 | Oat, Wild plant response rating [6, 23]: 0 | Oat, Wild plant response rating [6, 22]: 0 | Nutsedge, Yellow plant response rating [7, 16]: 0 | Nutsedge, Yellow plant response rating [7, 17]: 0 | Plant response rating, Nutsedge, Yellow [7, 18]: 0 | Plant response rating, Nutsedge, Yellow [7, 19]: 0 | Plant response rating, Nutsedge, Yellow [7, 20]: 100 | Plant response rating, Nutsedge, Yellow [7, 21]: 100 | Nutsedge, Yellow plant response rating [7, 23]: 100 | Nutsedge, Yellow plant response rating [7, 22]: 100 | Canarygrass plant response rating [8, 16]: 45 | Plant response rating, Canarygrass ([8]; 16 g ai/ha, scale 0 to 100): 60 | Plant response rating, Canarygrass ([8]; 31 g ai/ha, scale 0 to 100): 90 | Plant response rating, Canarygrass [8, 24]: 98 | Chickweed plant response rating [9, 16]: 0 | Plant response rating, Chickweed ([9]; 16 g ai/ha, scale 0 to 100): 0 | Plant response rating, Chickweed ([9]; 31 g ai/ha, scale 0 to 100): 0 | Plant response rating, Chickweed [9, 24]: 0 | Windgrass plant response rating ([10]; 8 g ai/ha): 30 | Windgrass plant response rating ([10]; 16 g ai/ha): 80 | Plant response rating, Windgrass ([10]; 31 g ai/ha, scale 0 to 100): 80 | Plant response rating, Windgrass [10, 24]: 90 | Barley plant response rating [11, 16]: 0 | Plant response rating, Barley ([11]; 16 g ai/ha): 0 | Plant response rating, Barley ([11]; 31 g ai/ha): 5 | Plant response rating, Barley ([11]; 62 g ai/ha): 25
